Test results published in patent US20240293425A1, “BZD-1 AS A CHEMO[…] CANCER” (University of Cincinnati, priority 2021, published 2024).
Values after ≈ are worked out from the molar mass of the structure shown.

Assays:
[1] = system: methylated and unmethylated GBM cells; experiment: In vitro cytotoxicity of GBM cells, BZD-1 and TMZ single or combined; format: cell-based
[2] = system: unmethylated GBM lines BT142-GFP and G43; experiment: Spheroid assay; format: cell-based; settings: BZD-1 + TMZ; BT142-GFP and G43 spheroids; qualitative
Method: Spheroid assays were carried out using two unmethylated GBM lines: BT142-GFP (FIG. 3A) and G43 (FIG. 3B) to qualitatively assess the effect of BZD-1+TMZ.

[3] = Stability of co-solvent formulation at room temperature; format: physicochemical
[4] = system: H1792 human lung cancer cells; experiment: MTS proliferation assay, BZD-1 alone; format: cell-based
Method: 10^3 H1792 cells/well in 100 uL of medium were plated in a 96 well plate and allowed to attach for 24 hrs. The next day, BZD-1 (stock, 40 mM in DMSO) was first diluted to 40 μM in fresh cell culture medium, then serially 2-fold diluted. Medium on cells was then carefully aspirated and replaced with 100 μL of vehicle (DMSO)/drug containing medium, with 5 replicated for each control/drug dilution. Cells were returned to the incubator for 48 hours.
(§1) For MTS Assay, medium was carefully aspirated and replaced with 100 μL of phenol red free medium. Then 20 μL of MTS reagent (Cell Titer 96 Aqueous Non-Radioactive Cell Proliferation Assay reagent—Promega) was added to each well. The plate was returned to incubator for 1 hour, then OD acquired at 490 nm in a plate reader. OD values were then analyzed, and the graph obtained using GraphPad Prism.

[5] = system: H1792 human lung cancer cells; experiment: MTS proliferation assay, DTX + 2.5 μM BZD-1; format: cell-based
Method: 10^3 H1792 cells/well in 100 μL of medium were plated in a 96 well plate and allowed to attach for 24 hrs. The next day, large volume of fresh medium containing 2.5 μM BZD-1 was prepared from 40 mM BZD-1 stock in DMSO. For Docetaxel (DTX) dilutions, either fresh medium was used for DTX only or 2.5 μM BZD-1 containing medium was used for DTX+2.5 μM BZD-1 treatment. Medium on cells was then aspirated and replaced by 100 μL of vehicle (DMSO)/drug containing media, with 5 replicated for each control/drug dilution. Cells were returned to the incubator for 48 hours.
as §1, with “was” for “was carefully”, “by” for “with”
10^3 H1792 cells/well in 100 μL of medium were plated in a 96 well plate and allowed to attach for 24 hrs. […]
For MTS Assay, medium was aspirated and replaced with 100 μL of phenol red free medium. […] The plate was returned to the incubator for 1 hour, then OD acquired at 490 nm in a plate reader. OD values were then analyzed, and the graph obtained using GraphPad Prism.

H1792 cells = experiment: Clonogenic assay, BZD-1 with or without 0.5 nM DTX; format: cell-based, human; settings: BZD-1 + 0.5 nM DTX, 12 days
Method: 300 H1792 cells/well in 3 mL of medium were plated in a 6 well plate and allowed to attach for 36 hrs. A large volume of fresh medium containing 0.5 nM Docetaxel (DTX) was prepared from 1 mM stock in DMSO. For BZD-1 dilution, either fresh medium or +0.5 nM DTX containing medium was used. Medium on cells was then aspirated and replaced by 3 mL of vehicle (DMSO)/Drug containing media in triplicate for each control/drug dilution. Cells were returned to the incubator for 12 days. For staining, medium was aspirated, cells were washed 1× with PBS and fixed 15 minutes with methanol at room temperature. Methanol was then removed, and crystal violet staining solution added to cells and incubated 30 minutes at room temperature. Plates were then washed extensively with tap water, dried and pictured.

H1792 xenograft tumor = experiment: H1792 flank xenograft dose response; format: in vivo, NOD-SCID mice
Method: NOD-SCID mice (3 mice/group) were implanted with 10^6 H1792 cells s.c. in both flanks. When the tumors were palpable (day 11 post implantation), treatment was started and consisted of daily i.p. injections of vehicle (DMSO) or BZD-1 drug dissolved in DMSO for 7 days. Tumor size was measured every other day using a caliper. Tumor volume was calculated as follows: […]
At day 46 post tumor implantation, mice were euthanized following institutional IACUC procedures. Tumors from both flanks were resected, weighed, and average tumor mass for each group was calculated, plotted, and photographed.

[6] = Pharmacokinetics, brain penetration
[7] = Metabolic stability in human liver microsomes; settings: within 1 hr
rats = experiment: Visible adverse effects after single dose i.p.; settings: 12 hrs after single dose i.p., co-solvent formulation
[8] = Solubility in co-solvent injectable formulation; settings: co-solvent based injectable formulation, aqueous with cosolvent or surfactant or cyclodextrin
[9] = daily i.p. for 7 days, NOD-SCID mice

C#Cc1ccc2c(c1)C(c1ccccc1F)=NCC(=O)N2C [BZD-1, 7-ethynyl-5-(2-fluorophenyl)-1-methyl-1,3-dihydro-2H-benzo[e][1,4]diazepin-2-one]
Effect of combined therapy on TMZ resistance ([1]; BZD-1 + TMZ, unmethylated GBM cell lines): overcomes TMZ resistance
Synergy of BZD-1 and TMZ (Chou-Talay Combination Index Equation) ([1]; BZD-1 in combination with TMZ, GBM cells): act synergistically
Spheroid response to combination therapy [2]: significant disaggregation
Stable at room temperature [3]: up to 6 months
Proliferation of H1792 cells ([4]; 48 hours, in vitro): inhibits proliferation
IC50 ([4]; Homo sapiens, NCI-H1792, 48 hours): 4.5 to 6 µM
Effect on docetaxel cytotoxicity ([5]; 2.5 μM BZD-1 + DTX, 48 hours, MTS): potentiates the cytotoxic effect of docetaxel
Combination Index (CI) ([5]; BZD-1 combined with DTX, H1792 cell growth in vitro): 0.6
Clonogenic growth, combination with docetaxel (H1792 cells): work synergistically
Most effective dose (H1792 xenograft tumor; [9]): 2.5 mg/kg
Tumor volume compared to vehicle (H1792 xenograft tumor; [9]): reduced tumor volume
Sedation in the animal model (H1792 xenograft tumor; doses higher than 2.5 mg/kg): sedating
Time of penetration into the brain ([6]; brain): ≤ 5 min
Accumulation in brain extracellular fluid ([6]; brain extracellular fluid): 161.3 ng/mL
Breakdown products in human liver microsomes [7]: no breakdown products were found
Visible adverse effects (rats): no visible adverse effects
solubility [8]: 10000 µg/mL (≈ 34.2 mM)
